Data: paper PMC11642016 (International Journal of Molecular Sciences, 2024)
“And” between values parts separate entries of the source, which are not always exact repeats. Equal entries are not always repeated. Where two headings read alike, the source gives them in different places.

Key:
PANC-1 cells = assay: CellTiter-Glo luminescent cell viability assay, PANC-1; details: for viability at 2.8 µM: read-out: Cell Viability (% of Control) 2.8 µM, PANC-1; for viability at 2.8 µM / viability at 8.3 µM / viability at 25 µM: mean ± SD, n = 2; for viability at 8.3 µM: read-out: Cell Viability (% of Control) 8.3 µM, PANC-1; for viability at 25 µM: read-out: Cell Viability (% of Control) 25 µM, PANC-1
[1] = test system: PANC-1, Fadu, A2058 and EBC-1 cell lines; parameters: method as in PMID 35455465; details: 10 µM; cited from earlier work
PANC-1 and Fadu cells = assay: CellTiter-Glo viability, statements covering both cancer cell lines; type: cell-based, human; details: Homo sapiens; 25 µM; in either of the cancer cell lines; read-out: drop in viability at 25 µM
Experimental: The effects of the synthesized compounds on cell viability were measured using the CellTiter-Glo® luminescent cell viability assay (Promega, Madison, WI, USA), according to the manufacturer’s instructions. […] After seeding, cells were incubated for a further 48 h before treatment. Cells were treated with the compounds for 72 h. […] After treatment, the luminescence signal was recorded using a microplate reader (BioTek Synergy 2 Multi-Mode Reader, BioTek, Winooski, VT, USA).

Fadu cells = assay: CellTiter-Glo luminescent cell viability assay, Fadu; details: for viability at 2.8 µM: read-out: Cell Viability (% of Control) 2.8 µM, Fadu; for viability at 2.8 µM / viability at 8.3 µM / viability at 25 µM: mean ± SD, n = 2; for viability at 8.3 µM: read-out: Cell Viability (% of Control) 8.3 µM, Fadu; for viability at 25 µM: read-out: Cell Viability (% of Control) 25 µM, Fadu
[2] = test system: non-tumorous primary fibroblast cells; assay: CellTiter-Glo luminescent cell viability assay, primary fibroblasts; details: for Primer fibroblast Cell viability (% of controll): dose–response, individual replicates
Experimental: (§1) Primary fibroblast cultures were prepared from human skin biopsies and maintained in DMEM supplemented with 10% FBS, 1% penicillin-streptomycin, and 1% MEM Non-Essential Amino Acids Solution (Thermo Fisher Scientific). […] All cell lines were cultured in a humidified atmosphere at 37 °C and 5% CO2, passaged twice a week, and the experiments were performed on cells between passage 5 and 15. The cell lines were routinely screened for the absence of mycoplasma infection (DAPI staining).
(§2) The effects of the synthesized compounds on cell viability were measured using the CellTiter-Glo® luminescent cell viability assay (Promega, Madison, WI, USA), according to the manufacturer’s instructions. Briefly, cells were seeded onto a flat-bottomed, white 96-well plate (BRANDplates, cat. no.: 781965)), with the following densities: PANC-1: 750 cells/well, Fadu: 2000 cells/well, primary fibroblasts: 2000 cells/well, HEK293T WT: 1000 cells/well, HEK293T CLPP^−/−: 2500 cells/well. After seeding, cells were incubated for a further 48 h before treatment. Cells were treated with the compounds for 72 h. Three concentrations (25.0 µM; 8.3 µM; 2.8 µM) were applied during the initial cell viability screening, while for the determination of dose–response curves, 1.5-fold serially diluted compound concentrations were applied (range: 26 µM–0.7 µM). After treatment, the luminescence signal was recorded using a microplate reader (BioTek Synergy 2 Multi-Mode Reader, BioTek, Winooski, VT, USA).
(§3) Data analysis was performed using GraphPad Prism 9.5.0 software (GraphPad Software, San Diego, CA, USA). […] The dose–response curves were generated by four-parameter nonlinear regression, and the IC50 values were determined as the means ± SEM of the best-fit values of 3 independent measurements. The R^2 values were consistently above 0.93, indicating a strong fit of the model to the experimental data (Supplementary S.89). […] Dunnett’s post hoc test was applied to adjust for multiple comparisons, minimizing the likelihood of false positive results. Assumptions for ANOVA, including normality (assessed via QQ plots) and homogeneity of variance (tested using the Brown–Forsythe test), were verified. The following significance levels were applied: * p < 0.05, ** p < 0.01, *** p < 0.001, **** p < 0.0001. […] The tumor selectivity of the compounds was quantitatively characterized by the selectivity index (SI). This parameter was calculated as the ratio of the average best-fit IC50 value for primary fibroblasts and the best-fit IC50 value for the corresponding tumor cells (PANC-1 or Fadu).

[3] = as above; details: human, primary skin fibroblasts (non-tumorous), Primer fibroblast Cell viability (% of controll), 72 h, dose–response, individual replicates
Experimental: as §1, §2, §3

[4] = 1 μM, 72 h, dose–response, individual replicates
[5] = 1.5 μM, 72 h, dose–response, individual replicates
[6] = 2.3 μM, 72 h, dose–response, individual replicates
[7] = 3.4 μM, 72 h, dose–response, individual replicates
[8] = 5.1 μM, 72 h, dose–response, individual replicates
[9] = 7.7 μM, 72 h, dose–response, individual replicates
[10] = 17.3 μM, 72 h, dose–response, individual replicates
[11] = 26 μM, 72 h, dose–response, individual replicates
[12] = Homo sapiens, PANC-1, 72 h, 72 h, first-set screening
[13] = Homo sapiens, PANC-1, 72 h, 72 h, second-set screening
[14] = Homo sapiens, FaDu, 72 h, 72 h, first-set screening
[15] = Homo sapiens, FaDu, 72 h, 72 h, second-set screening

NCC#Cc1ccc(CN2C(=O)C3=C(CCN(Cc4ccc(-n5cc(-c6ccccc6)nn5)cc4)C3)N3CCN=C23)cc1 [I/B, reference compound]
PANC-1 Cell viability (% of controll) (PANC-1 cells; 0.7 μM, 72 h, dose–response, individual replicates): 106 % of controll and 104 % of controll | PANC-1 Cell viability (% of controll) (PANC-1 cells; [4]): 106 % of controll and 107 % of controll | PANC-1 Cell viability (% of controll) (PANC-1 cells; [5]): 111 % of controll | PANC-1 Cell viability (% of controll) (PANC-1 cells; [6]): 113 % of controll | PANC-1 Cell viability (% of controll) (PANC-1 cells; [7]): 113 % of controll | PANC-1 Cell viability (% of controll) (PANC-1 cells; [8]): 109 % of controll and 116 % of controll | PANC-1 Cell viability (% of controll) (PANC-1 cells; [9]): 72 % of controll and 90 % of controll | PANC-1 Cell viability (% of controll) (PANC-1 cells; [10]): 0 % of controll | PANC-1 Cell viability (% of controll) (PANC-1 cells; [11]): 0 % of controll | viability at 2.8 µM (PANC-1 cells; [12]): 113 ± 4% | viability at 2.8 µM (PANC-1 cells; [13]): 113 ± 4% | viability at 8.3 µM (PANC-1 cells; [12]): 61 ± 22% | viability at 8.3 µM (PANC-1 cells; [13]): 61 ± 22% | viability at 25 µM (PANC-1 cells; [12]): 0% | viability at 25 µM (PANC-1 cells; [13]): 0% | IC50 (PANC-1 cells; Homo sapiens, PANC-1, 72 h, read-out: IC50 Value ± SEM PANC-1, 72 h treatment, best-fit values, n = 3): 8.2 ± 0.41 µM | viability at 0.7 µM (PANC-1 cells; Homo sapiens, PANC-1, 72 h, read-out: PANC-1 Cell viability (% of controll), 0.7 μM, 72 h, dose–response, individual replicates): 102% | viability at 1 µM (PANC-1 cells; Homo sapiens, PANC-1, 72 h, read-out: PANC-1 Cell viability (% of controll), 1 μM, 72 h, dose–response, individual replicates): 111% | viability at 1.5 µM (PANC-1 cells; Homo sapiens, PANC-1, 72 h, read-out: PANC-1 Cell viability (% of controll), 1.5 μM, 72 h, dose–response, individual replicates): 111% | viability at 2.3 µM (PANC-1 cells; Homo sapiens, PANC-1, 72 h, read-out: PANC-1 Cell viability (% of controll), 2.3 μM, 72 h, dose–response, individual replicates): 112% | viability at 3.4 µM (PANC-1 cells; Homo sapiens, PANC-1, 72 h, read-out: PANC-1 Cell viability (% of controll), 3.4 μM, 72 h, dose–response, individual replicates): 108% | viability at 5.1 µM (PANC-1 cells; Homo sapiens, PANC-1, 72 h, read-out: PANC-1 Cell viability (% of controll), 5.1 μM, 72 h, dose–response, individual replicates): 112% | viability at 7.7 µM (PANC-1 cells; Homo sapiens, PANC-1, 72 h, read-out: PANC-1 Cell viability (% of controll), 7.7 μM, 72 h, dose–response, individual replicates): 72% | viability at 17.3 µM (PANC-1 cells; Homo sapiens, PANC-1, 72 h, read-out: PANC-1 Cell viability (% of controll), 17.3 μM, 72 h, dose–response, individual replicates): 0% | viability at 26 µM (PANC-1 cells; Homo sapiens, PANC-1, 72 h, read-out: PANC-1 Cell viability (% of controll), 26 μM, 72 h, dose–response, individual replicates): 0% | IC50 (PANC-1 cells; Homo sapiens, PANC-1, read-out: PANC-1 IC50 values, Mean, mean of independently fitted replicate IC50 values (Supplement S.6)): 8.19 µM | IC50 (PANC-1 cells; Homo sapiens, PANC-1, read-out: PANC-1 IC50 values, individual replicates n1-n3, IC50 independently determined for each replicate measurement (Supplement S.6)): 8.43 µM | Selectivity Index (SI) Fibroblast/PANC-1 (PANC-1 cells; ratio of mean best-fit IC50 for primary fibroblasts and best-fit IC50 for PANC-1): 1.3 | IC50 (PANC-1 cells; read-out: PANC-1 IC50 values, individual replicates n1-n3, IC50 independently determined for each replicate measurement (Supplement S.6)): 7.99 µM and 8.15 µM | viable cells after treatment in colony formation assays [1]: no viable cells could be observed | viability at 25 µM (PANC-1 and Fadu cells): 0 to 1% | Fadu Cell viability (% of controll) (Fadu cells; [4]): 116 % of controll | Fadu Cell viability (% of controll) (Fadu cells; [5]): 108 % of controll and 114 % of controll | Fadu Cell viability (% of controll) (Fadu cells; [6]): 112 % of controll | Fadu Cell viability (% of controll) (Fadu cells; [7]): 112 % of controll | Fadu Cell viability (% of controll) (Fadu cells; [8]): 107 % of controll | Fadu Cell viability (% of controll) (Fadu cells; [9]): 100 % of controll and 97 % of controll | Fadu Cell viability (% of controll) (Fadu cells; [10]): 0 % of controll | Fadu Cell viability (% of controll) (Fadu cells; [11]): 0 % of controll | viability at 2.8 µM (Fadu cells; [14]): 112 ± 7% | viability at 2.8 µM (Fadu cells; [15]): 112 ± 7% | viability at 8.3 µM (Fadu cells; [14]): 103 ± 6% | viability at 8.3 µM (Fadu cells; [15]): 103 ± 6% | viability at 25 µM (Fadu cells; [14]): 0% | viability at 25 µM (Fadu cells; [15]): 0% | viability at 0.7 µM (Fadu cells; Homo sapiens, FaDu, 72 h, read-out: Fadu Cell viability (% of controll), 0.7 μM, 72 h, dose–response, individual replicates): 106% | viability at 1 µM (Fadu cells; Homo sapiens, FaDu, 72 h, read-out: Fadu Cell viability (% of controll), 1 μM, 72 h, dose–response, individual replicates): 112% | viability at 1.5 µM (Fadu cells; Homo sapiens, FaDu, 72 h, read-out: Fadu Cell viability (% of controll), 1.5 μM, 72 h, dose–response, individual replicates): 109% | viability at 2.3 µM (Fadu cells; Homo sapiens, FaDu, 72 h, read-out: Fadu Cell viability (% of controll), 2.3 μM, 72 h, dose–response, individual replicates): 110% | viability at 3.4 µM (Fadu cells; Homo sapiens, FaDu, 72 h, read-out: Fadu Cell viability (% of controll), 3.4 μM, 72 h, dose–response, individual replicates): 105% | viability at 5.1 µM (Fadu cells; Homo sapiens, FaDu, 72 h, read-out: Fadu Cell viability (% of controll), 5.1 μM, 72 h, dose–response, individual replicates): 104% | viability at 7.7 µM (Fadu cells; Homo sapiens, FaDu, 72 h, read-out: Fadu Cell viability (% of controll), 7.7 μM, 72 h, dose–response, individual replicates): 93% | viability at 17.3 µM (Fadu cells; Homo sapiens, FaDu, 72 h, read-out: Fadu Cell viability (% of controll), 17.3 μM, 72 h, dose–response, individual replicates): 0% | viability at 26 µM (Fadu cells; Homo sapiens, FaDu, 72 h, read-out: Fadu Cell viability (% of controll), 26 μM, 72 h, dose–response, individual replicates): 0% | IC50 (Fadu cells; Homo sapiens, FaDu, 72 h, read-out: IC50 Value ± SEM Fadu, 72 h treatment, best-fit values, n = 3): 10.3 ± 0.17 µM | IC50 (Fadu cells; Homo sapiens, FaDu, read-out: Fadu IC50 values, Mean, mean of independently fitted replicate IC50 values (Supplement S.6)): 10.4 µM | IC50 (Fadu cells; Homo sapiens, FaDu, read-out: Fadu IC50 values, individual replicates n1-n3, IC50 independently determined for each replicate measurement (Supplement S.6)): 11 µM | Selectivity Index (SI) Fibroblast/Fadu (Fadu cells; ratio of mean best-fit IC50 for primary fibroblasts and best-fit IC50 for Fadu): 1.1 | IC50 (Fadu cells; read-out: Fadu IC50 values, individual replicates n1-n3, IC50 independently determined for each replicate measurement (Supplement S.6)): 9.91 µM and 10.2 µM | Primer fibroblast Cell viability (% of controll) ([2]; 0.7 μM, 72 h): 98 % of controll and 97 % of controll | Primer fibroblast Cell viability (% of controll) ([2]; 1.5 μM, 72 h): 108 % of controll and 98 % of controll | Primer fibroblast Cell viability (% of controll) ([2]; 2.3 μM, 72 h): 107 % of controll and 98 % of controll | Primer fibroblast Cell viability (% of controll) ([2]; 3.4 μM, 72 h): 109 % of controll and 98 % of controll | Primer fibroblast Cell viability (% of controll) ([2]; 5.1 μM, 72 h): 110 % of controll and 98 % of controll | Primer fibroblast Cell viability (% of controll) ([2]; 7.7 μM, 72 h): 107 % of controll | Primer fibroblast Cell viability (% of controll) ([2]; 17.3 μM, 72 h): 0 % of controll | Primer fibroblast Cell viability (% of controll) ([2]; 26 μM, 72 h): 0 % of controll | IC50 ([2]; Homo sapiens, Fibroblast, 72 h, read-out: IC50 Value ± SEM Primary Fibroblast, 72 h treatment, best-fit values, n = 3): 11 ± 0.65 µM | IC50 ([2]; Homo sapiens, Fibroblast, read-out: Primary fibroblast IC50 values, Mean, mean of independently fitted replicate IC50 values (Supplement S.6), ONC201 value mathematically estimated from inflection point): 11.2 µM | IC50 ([2]; Homo sapiens, Fibroblast, read-out: Primary fibroblast IC50 values, individual replicates n1-n3, IC50 independently determined for each replicate (Supplement S.6), ONC201 value mathematically estimated from inflection point, viability stayed above 50%): 11.1 µM | IC50 ([2]; read-out: Primary fibroblast IC50 values, individual replicates n1-n3, IC50 independently determined for each replicate (Supplement S.6), ONC201 value mathematically estimated from inflection point, viability stayed above 50%): 11.1 µM and 11.4 µM | viability at 72 h, 0.7 µM ([3]; 0.7 μM): 93% | viability at 72 h, 1 µM ([3]; 1 μM): 99% | viability at 72 h, 1.5 µM ([3]; 1.5 μM): 105% | viability at 72 h, 2.3 µM ([3]; 2.3 μM): 100% | viability at 72 h, 3.4 µM ([3]; 3.4 μM): 101% | viability at 72 h, 5.1 µM ([3]; 5.1 μM): 104% | viability at 72 h, 7.7 µM ([3]; 7.7 μM): 92% | viability at 72 h, 17.3 µM ([3]; 17.3 μM): 0% | viability at 72 h, 26 µM ([3]; 26 μM): 0%
